Measured values: patent publication US10806694B2, “Nanoparticles for photodynamic therapy, X-ray induced photodynamic therapy, radiotherapy, radiodynamic therapy, chemotherapy, immunotherapy, and any combination thereof” (The University of Chicago, priority 2014, dated 2020)

How the values were obtained:
[1] = Fluorescence lifetime by Time-Correlated Single Photon Counting; fluorescence intensity; type: physicochemical
Description: The fluorescence spectra of H2DBP ligand and DBP-UiO NMOF were taken on a spectrofluorophotometer (RF-5301PC, Shimadzu Corporation, Kyoto, Japan).
Time-domain lifetimes were measured on a ChronosBH lifetime fluorimeter (ISS, Inc., Champaign, Ill., United States of America) using Time-Correlated Single Photon Counting (TCSPC) methods. The fluorimeter contained Becker-Hickl SPC-130 detection electronics and an HPM-100-40 Hybrid PMT detector. Tunable picosecond pulsed excitation was provided by a Fianium SC400-2 supercontiuum laser source with integrated pulse picker and AOTF. Emission wavelengths were selected with bandpass filters (Semrock and Chroma). The Instrument Response Function (IRF) was measured to be approximately 120 ps FWHM in a 1% scattering solution of Ludox LS colloidal silica. Lifetimes were fit via a forward convolution method in the Vinci control and analysis software.
Fluorescence spectra of suspensions of Hf-MOF (0.04 mM of L ligand) in water, DMF, and THF were taken with an excitation wavelength of 368.8 nm. […] Fluorescence lifetimes of Hf-MOF, Zr-MOF, and H2L suspensions in water were also examined.

HT29 cells = settings: 8.5 μM dose, 100 J/cm^2 light dose; cited from earlier work

Compound | excited state lifetime ([1]; DMF solution or suspension) | weighted fluorescence lifetime ([1]; suspensions in water) | PDT efficacy (HT29 cells)
O=C(O)c1ccc(-c2c3ccccc3c(-c3ccc(C(=O)O)cc3)c3ccccc23)cc1 [H2L, 9,10-anthacenyl bis(benzoic acid)] | 5.34 ns | 2.0 ns | 
PHOTOFRIN® |  |  | modest PDT efficacy
